According to publication PMC8765781, “A platform of assays for the discovery of anti-Zika small-molecules with activity in a 3D-bioprinted outer-blood-retina model” (PLoS ONE, 2022):
pIC50: −log10 of the molar value. Read-outs that look alike come from different tables or passages of the source.

Assays:
[1] = tested on: DENV (Dengue virus type 2, strain New Guinea C)
[2] = in vitro; conditions: human
[3] = in vitro; conditions: human; remark: listed apart in the source
[4] = tested on: WNV (Kern515/WN02)
[5] = in vitro; conditions: African green monkey; for CC50 at 48 h: Vero cells
[6] = tested on: ZIKV-RLuc (Cambodian strain FSS13025); test: microbe, parasite or virus in culture; type: cell-based, Zika virus; conditions: for pIC50 / AC50: Zika virus, Vero; for pIC50: 48 h, read-out: Rluc-ZIKV (ZIKV Antiviral Assays), IC50
[7] = tested on: wild-type ZIKV (Ugandan MR766 strain) in Vero cells; test: ZIKV cytopathic effect (CPE) inhibition qHTS assay, CellTiter-Glo readout; type: cell-based, Zika virus; conditions: for pIC50: 48 h, read-out: ZIKV-infection (CPE, ZIKV Antiviral Assays), IC50
[8] = tested on: mCherry-ZIKV in human neuronal progenitor cells; test: microbe, parasite or virus in culture; type: cell-based, Zika virus; conditions: for pIC50 / AC50: Zika virus, Neuronal progenitor cell; for pIC50: read-out: NPC (ZIKV Antiviral Assays), IC50
[9] = tested on: ZIKV
[10] = tested on: YFV (YFV 17D)
[11] = tested on: ZIKV-mCherry (Cambodian strain FSS13025); test: microbe, parasite or virus in culture; type: cell-based, Zika virus; conditions: for AC50: Zika virus, Vero
[12] = tested on: caspase-3 activity induced by ZIKV in Vero cells; test: cells; type: cell-based; conditions: Zika virus, Vero, 48 h, read-out: Caspase 3 (ZIKV Antiviral Assays), IC50
[13] = tested on: Vero cells
[14] = Zika virus, Vero, read-out: Log AC50 (M) (converted)
[15] = read-out: Log AC50 (M) (converted)

SMILES	DENV active Yes/No [1]	CC50 [2] [µM]	WHV active Yes/No [4]	CC50 at 48 h [5] [µM]	pIC50 [6]	Efficacy [7]	AC50 ([7]; Zika virus, Vero) [M]	pIC50 ([7]; Zika virus, Vero)	AC50 [7, 14] [M]	CC-v2 (curve class) [8]	Efficacy [8]	Max Resp [8]	pIC50 [8]	ZIKV active Yes/No [9]	CC-v2 (curve class of the dose response curve) [11]	Efficacy (difference between neutral response and maximum compound response) [11]	Max Resp (difference between neutral response and response at highest compound concentration) [11]	pIC50 [12]	AC50 [11] [M]	AC50 [11, 15] [M]	other results
C=C1CCC2[C@](C)(CCC[C@]2(C)C(=O)O)[C@H]1CC/C(C)=C/C(=O)OC (stereo partly drawn) [NCGC00168922-02]	No	> 30	No	> 50	7.15	-63.179	4.04e-07	6.40	4.04e-07	4	-21.467	-17.835	4.95	No	-1.4	-50.999	-55.843	5.14	–	–	CC50 at 24 h [3]: 13.3 µM; YFV active Yes/No [10]: No
C=C(F)c1sc(CNCCCNc2cc(=O)c3ccccc3[nH]2)c(C)c1Br [NCGC00386616-01]	No	–	No	> 50	5.08	-30.953	2.06e-05	4.69	2.06e-05	-2.2	-88.323	-56.18	4.40	No	-1.4	-70.696	-94.173	5.98	–	–	CC50 at 24 h [3]: > 30 µM; Antiviral activity in human NPC [8]: moderate antiviral activity; AC50 [8]: 3.98e-05 M; AC50 [8, 15]: 3.98e-05 M; YFV active Yes/No [10]: No
Nc1ccn([C@@H]2O[C@H](CO)[C@@H](O)C2(F)F)c(=O)n1 [NCGC00168784-08, gemcitabine, reference compound]	–	> 30	–	> 50	7.70	-24.938	9.2e-06	5.04	9.2e-06	-1.2	-65.573	-52.766	5.20	–	-1.2	-61.697	-99.896	< 4.32	2.67e-09	2.67e-09	CC50 at 24 h [3]: 16.3 µM; Antiviral activity in human NPC [8]: moderate antiviral activity; AC50 [8]: 6.31e-06 M; AC50 [8, 15]: 6.31e-06 M
OC1C=C2C3CN(Cc4cc5c(cc43)OCO5)C2CC1O (stereo not drawn) [NCGC00385948-01]	Yes	–	Yes	–	5.03	-79.681	2.59e-05	–	2.59e-05	-1.2	-64.358	-62.953	5.00	Yes	-1.2	-44.826	-97.729	5.38	2.67e-06	2.67e-06	Activity against DENV [1]: active against DENV; SI value DENV (CC50/EC50) [1]: 16; Selectivity Index DENV (CC50/EC50) [1]: 16; CC50 [3]: > 30 µM; Activity against WNV [4]: weaker against WNV and ZIKV; SI value WHV (CC50/EC50) [4]: 7.6; Selectivity Index WHV (CC50/EC50) [4]: 8; CC50 [5]: > 50 µM; CC-v2 (curve class classification of the dose response curve) [7]: -2.2; Antiviral activity in human NPC [8]: effectively inhibited ZIKV in NPC cells; AC50 [8]: 1e-05 M; AC50 [8, 15]: 1e-05 M; Activity against ZIKV [9]: weaker against WNV and ZIKV; SI value ZIKV (CC50/EC50) [9]: 4.7; Selectivity Index ZIKV (CC50/EC50) [9]: 5; YFV active Yes/No [10]: No
CC1(C)CC2C(O)C3=C(CC(C)(O)C2C1)C(=O)OC3 (stereo not drawn) [NCGC00385131-01]	No	> 30	No	> 50	7.70	-83.269	2.31e-05	4.64	–	–	–	–	–	No	-1.2	-69.698	-44.202	5.08	2.67e-09	2.67e-09	Curve class [7]: -3; AC50 ([7]; Zika virus, Vero, read-out: Log AC50 (converted)): 2.31e-05 M; Emax ([7]; Zika virus, Vero, read-out: Max response): 3.01%; YFV active Yes/No [10]: No
CCC[S+](=O)([O-])Nc1ccc(F)c(C(=O)c2c[nH]c3ncc(-c4ccc(Cl)cc4)cc23)c1F [NCGC00250399-05]	Yes	–	No	–	5.03	-40.165	1.46e-06	5.84	1.46e-06	4	-22.524	-6.687	4.45	Yes	5	0	-69.344	5.08	–	–	SI value DENV (CC50/EC50) [1]: 4.3; Selectivity Index DENV (CC50/EC50) [1]: 4; CC50 [3]: > 30 µM; SI value WHV (CC50/EC50) [4]: 2; Selectivity Index WHV (CC50/EC50) [4]: 2; CC50 [5]: > 50 µM; SI value ZIKV (CC50/EC50) [9]: 14; Selectivity Index ZIKV (CC50/EC50) [9]: 14; YFV active Yes/No [10]: No
COc1cccc(-n2nc(C(=O)O)cc2-c2ccc(C3CCCCC3)c(Cl)c2)c1 [NCGC00379183-01]	–	25.1	–	> 50	4.73	-41.012	2.91e-05	4.54	2.91e-05	-3	-112.723	-95.876	–	–	5	-42.035	-100.305	4.58	1.68e-05	1.68e-05	CC-v2 (curve class classification of the dose response curve) [7]: -3; AC50 [8]: 5.01e-05 M; AC50 [8, 15]: 5.01e-05 M
CC(=O)OC[C@]12[C@H](OC(C)=O)C(=O)[C@@H]3[C@@H](O)[C@@]14O[C@@]3(C)COC(=O)c1cccnc1[C@@H](C)[C@H](C)C(=O)O[C@@H]([C@H](OC(C)=O)[C@@H]2OC(C)=O)[C@]4(C)O [NCGC00385298-01]	–	> 30	–	–	5.01	-97.679	1.72e-05	4.76	1.72e-05	–	–	–	–	–	-1.3	-66.581	-100.048	5.01	3.53e-06	3.53e-06	AC50 [13]: 9.81 µM; Log AC50 (M) [13]: -5.0083 M; CC50 [5]: > 50 µM; CC-v2 (curve class classification v2 of the dose response curve) [6]: -2.3; Efficacy (difference between neutral response and maximum compound response) [6]: -117.521; Max Resp (difference between neutral response and compound response for highest compound concentration) [6]: -98.025; AC50 [6]: 9.81e-06 M; AC50 [6, 15]: 9.81e-06 M; CC-v2 (curve class classification of the dose response curve) [7]: -2.1
CC(C)(C#N)c1ccc(N2C(=O)OCc3cnc4ccc(-c5cnc6ccccc6c5)cc4c32)cc1 [NCGC00386292-05]	No	–	No	> 50	5.53	-23.858	4.61e-06	5.34	4.61e-06	–	-38.419	3.825	4.60	Yes	-1.2	-67.723	-93.524	7.40	5.32e-07	5.32e-07	CC50 at 24 h [3]: > 30 µM; Antiviral activity in human NPC [8]: moderate antiviral activity; AC50 [8]: 2.51e-05 M; AC50 [8, 15]: 2.51e-05 M; SI value ZIKV (CC50/EC50) [9]: 3; Selectivity Index ZIKV (CC50/EC50) [9]: 3; YFV active Yes/No [10]: No
C=C(CO)[C@@]12O[C@@H]1[C@@]1(C)C(=CC2=O)CC[C@@H](O)[C@@H]1C [NCGC00380396-01]	–	> 30	–	–	5.38	-65.778	8.2e-06	5.09	8.2e-06	–	–	–	–	–	-1.2	-43.557	-98.628	8.00	1.34e-06	1.34e-06	CC50 [5]: > 50 µM; CC-v2 (curve class classification of the dose response curve) [7]: -1.2
